From patent publication US8877707B2, “Inhibitors of HCV NS5A” (Presidio Pharmaceuticals, Inc., priority 2010, dated 2014)

These compounds were tested on HCV genotype 1b replicon in Huh 7 cells (assay: HCV replicon assay (1b_Huh-Luc/Neo-ET cell line, luciferase readout)). Settings: Hepatitis C virus, Huh-7; HCV 1b replicon; read-out: Inhibition of HCV genotype 1b.
Format: cell-based
Procedure, shortened: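 Huh 7 cells carrying a bicistronic genotype 1b luciferase replicon were treated with compound in triplicate the day after plating and incubated 72 h. Luciferase activity expressed as % of untreated control; EC50 from a four-parameter logistic fit, repeated several times.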
With `COC(=O)N[C@H](C(=O)N1CCC[C@H]1c1ncc(-c2ccc3cc(-c4cc5[nH]c([C@@H]6CCCN6C(=O)[C@@H](NC(=O)OC)C(C)C)nc5cn4)ccc3c2)[nH]1)C(C)C` [compound 527] the EC50 was < 1 nM. With `COC(=O)N[C@H](C(=O)N1CCC[C@H]1c1nc2ccc(-c3ccc4cc(-c5cnc([C@@H]6CCCN6C(=O)[C@@H](NC(=O)OC)[C@@H](C)OC)[nH]5)ccc4c3)cc2[nH]1)C1CCCC1` [compound 528] the EC50 was < 1 nM. For `COC(=O)N[C@H](C(=O)N1CCC[C@H]1c1nc2ccc(-c3ccc4cc(-c5cnc([C@@H]6CCCN6C(=O)[C@@H](NC(=O)OC)[C@@H](C)OC)[nH]5)ccc4c3)cc2[nH]1)C1CCCCC1` [compound 529], the EC50 was < 1 nM. For `COC(=O)N[C@H](C(=O)N1CCC[C@H]1c1ncc(-c2ccc3cc(-c4ccc5nc([C@@H]6CCCN6C(=O)[C@@H](NC(=O)OC)[C@@H](C)OC)[nH]c5n4)ccc3c2)[nH]1)[C@@H](C)OC` [compound 530], the EC50 was < 1 nM. In the case of `COC(=O)N[C@H](C(=O)N1CCC[C@H]1c1ncc(-c2ccc3cc(-c4ccc5nc([C@@H]6CCCN6C(=O)[C@@H](NC(=O)OC)C6CCOCC6)[nH]c5c4)nnc3c2)[nH]1)C1CCOCC1` [compound 531], the EC50 is reported as < 1 nM. With `COC(=O)N[C@H](C(=O)N1CCC[C@H]1c1nc2ccc(-c3ccc4cc(-c5cnc([C@@H]6CCCN6C(=O)[C@@H](NC(=O)OC)[C@@H](C)OC)[nH]5)ccc4c3)nc2[nH]1)C(C)C` [compound 532] the EC50 was < 1 nM. With `COC(=O)N[C@H](C(=O)N1CCC[C@H]1c1nc2ccc(-c3ccc4cc(-c5cnc([C@@H]6CCCN6C(=O)[C@@H](NC(=O)OC)[C@@H](C)OC)[nH]5)ccc4c3)nc2[nH]1)C1CCCC1` [compound 533] the EC50 was < 1 nM. For `CC[C@H](C)[C@H](NC(=O)OC)C(=O)N1CCC[C@H]1c1nc2ccc(-c3ccc4cc(-c5cnc([C@@H]6CCCN6C(=O)[C@@H](NC(=O)OC)[C@@H](C)OC)[nH]5)ccc4c3)nc2[nH]1` [compound 534], the EC50 was < 1 nM. For `COC(=O)N[C@H](C(=O)N1CCC[C@H]1c1ncc(-c2ccc3oc(-c4ccc(-c5cnc([C@@H]6CCCN6C(=O)[C@H](NC(=O)OC(C)(C)C)c6ccccc6)[nH]5)cc4)nc3c2)[nH]1)C(C)C` [compound 535], the EC50 was < 1 nM. With `COC(=O)N[C@H](C(=O)N1CCC[C@H]1c1ncc(-c2ccc(-c3nc4cc(-c5cnc([C@@H]6CCCN6C(=O)[C@H](NC(=O)OC)c6ccccc6)[nH]5)ccc4s3)cc2)[nH]1)C(C)C` [compound 536] the EC50 was < 1 nM. For `COC(=O)N[C@H](C(=O)N1CCC[C@H]1c1nc2ccc(-c3ccc4cc(-c5ccc6nc([C@@H]7CCCN7C(=O)[C@@H](NC(=O)OC)C(C)C)[nH]c6c5)nnc4c3)cc2[nH]1)C(C)C` [compound 537], the EC50 was < 1 nM. In the case of `COC(=O)N[C@H](C(=O)N1CCC[C@H]1c1nc2ccc(-c3ccc4cc(-c5ccc6nc([C@@H]7CCCN7C(=O)[C@@H](NC(=O)OC)[C@@H](C)OC)[nH]c6c5)nnc4c3)cc2[nH]1)[C@@H](C)OC` [compound 538], the EC50 is reported as < 1 nM. In the case of `COC(=O)N[C@H](C(=O)N1CCC[C@H]1c1nc2c([nH]1)-c1ccc(-c3ccc4cc(-c5cnc([C@@H]6CCCN6C(=O)[C@H](NC(=O)OC)c6ccccc6)[nH]5)ccc4n3)cc1CCC2)C(C)C` [compound 539], the EC50 is reported as < 1 nM. With `COC(=O)N[C@H](C(=O)N1CCC[C@H]1c1nc2c([nH]1)-c1ccc(-c3ccc4cc(-c5cnc([C@@H]6CCCN6C(=O)[C@H](NC(=O)OC6CCOCC6)c6ccccc6)[nH]5)ccc4n3)cc1CCC2)C(C)C` [compound 540] the EC50 was < 1 nM. `COC(=O)N[C@H](C(=O)N1CCC[C@H]1C(=O)Nc1ccc(-c2ccc3cc(-c4cnc([C@@H]5CCCN5C(=O)[C@@H](NC(=O)OC)C(C)C)[nH]4)ccc3n2)cc1)C(C)C` [compound 541] showed an EC50 of 1 to 9.9 nM. `COC(=O)N[C@H](C(=O)N1CCC[C@H]1C(=O)Nc1ccc(-c2ccc3cc(-c4cnc([C@@H]5CCCN5C(=O)[C@@H](NC(=O)OC)C5CCOCC5)[nH]4)ccc3n2)cc1)C1CCOCC1` [compound 542] gave an EC50 of 1 to 9.9 nM. For `COC(=O)N[C@@H](C(=O)N1CCC[C@H]1C(=O)Nc1ccc(-c2ccc3cc(-c4cnc([C@@H]5CCCN5C(=O)[C@H](NC(=O)OC)c5ccccc5)[nH]4)ccc3n2)cc1)c1ccccc1` [compound 543], the EC50 was < 1 nM. `COC(=O)N[C@H](C(=O)N1CCC[C@H]1CNC(=O)c1ccc(-c2ccc3cc(-c4cnc([C@@H]5CCCN5C(=O)[C@@H](NC(=O)OC)C(C)C)[nH]4)ccc3n2)cc1)C(C)C` [compound 544] was tested, and the EC50 was < 1 nM. `COC(=O)N[C@@H](C(=O)N1CCC[C@H]1CNC(=O)c1ccc(-c2ccc3cc(-c4cnc([C@@H]5CCCN5C(=O)[C@H](NC(=O)OC)c5ccccc5)[nH]4)ccc3n2)cc1)c1ccccc1` [compound 545] was tested, and the EC50 was < 1 nM. `COC(=O)N[C@H](C(=O)N1CCC[C@H]1C(=O)NCc1ccc(-c2ccc3cc(-c4cnc([C@@H]5CCCN5C(=O)[C@@H](NC(=O)OC)C(C)C)[nH]4)ccc3n2)cc1)C(C)C` [compound 546] was tested, and the EC50 was 10 to 999 nM. For `COC(=O)N[C@@H](C(=O)N1CCC[C@H]1C(=O)NCc1ccc(-c2ccc3cc(-c4cnc([C@@H]5CCCN5C(=O)[C@H](NC(=O)OC)c5ccccc5)[nH]4)ccc3n2)cc1)c1ccccc1` [compound 547], the EC50 was < 1 nM. With `COC(=O)N[C@@H](C(=O)N1CCC[C@H]1CNC(=O)c1cnc2cc(-c3ccc4c(c3)CCc3nc([C@@H]5CCCN5C(=O)[C@H](NC(=O)OC)c5ccccc5)[nH]c3-4)ccc2c1)c1ccccc1` [compound 548] the EC50 was < 1 nM. `COC(=O)N[C@H](C(=O)N1CCC[C@H]1CNC(=O)c1cnc2cc(-c3ccc4c(c3)CCc3nc([C@@H]5CCCN5C(=O)[C@@H](NC(=O)OC)C(C)C)[nH]c3-4)ccc2c1)C(C)C` [compound 549] was tested, and the EC50 was 1 to 9.9 nM. With `COC(=O)N[C@H](C(=O)N1CCC[C@H]1CNC(=O)c1cnc2cc(-c3ccc4c(ccc5nc([C@@H]6CCCN6C(=O)[C@@H](NC(=O)OC)C(C)C)[nH]c54)c3)ccc2c1)C(C)C` [compound 550] the EC50 was 1 to 9.9 nM. For `COC(=O)N[C@@H](C(=O)N1CCC[C@H]1CNC(=O)c1cnc2cc(-c3ccc4c(ccc5nc([C@@H]6CCCN6C(=O)[C@H](NC(=O)OC)c6ccccc6)[nH]c54)c3)ccc2c1)c1ccccc1` [compound 551], the EC50 was < 1 nM. For `COC(=O)N[C@H](C(=O)N1CCC[C@H]1CNC(=O)c1cnc2cc(-c3ccc(-c4cnc([C@@H]5CCCN5C(=O)[C@@H](NC(=O)OC)C(C)C)[nH]4)cc3)ccc2c1)C(C)C` [compound 552], the EC50 was 1 to 9.9 nM. For `COC(=O)N[C@@H](C(=O)N1CCC[C@H]1CNC(=O)c1cnc2cc(-c3ccc(-c4cnc([C@@H]5CCCN5C(=O)[C@H](NC(=O)OC)c5ccccc5)[nH]4)cc3)ccc2c1)c1ccccc1` [compound 553], the EC50 was < 1 nM. `COC(=O)N[C@H](C(=O)N1CCC[C@H]1CNC(=O)c1cnc2cc(-c3ccc4nc([C@@H]5CCCN5C(=O)[C@@H](NC(=O)OC)C(C)C)[nH]c4c3)ccc2c1)C(C)C` [compound 554] was tested, and the EC50 was 1 to 9.9 nM. With `COC(=O)N[C@@H](C)C(=O)N1CCC[C@H]1C(=O)N[C@@H](C)c1ccc(-c2ccc3cc(-c4cnc([C@@H]5CCCN5C(=O)[C@H](C)NC(=O)OC)[nH]4)ccc3c2)cc1` [compound 556] the EC50 was 10 to 999 nM. For `COC(=O)N[C@H](C(=O)N1CCC[C@H]1C(=O)N[C@@H](C)c1ccc(-c2ccc3cc(-c4cnc([C@@H]5CCCN5C(=O)[C@@H](NC(=O)OC)C(C)C)[nH]4)ccc3c2)cc1)C(C)C` [compound 557], the EC50 was < 1 nM.
